Test results as given in ChEMBL document CHEMBL1147260, “Heliotropamide, a novel oxopyrrolidine-3-carboxamide from Heliotropium ovalifolium” (J Nat Prod, 2003).
The source made the active and inactive calls.

Key:
[1] = system: Candida albicans; test: Antifungal activity against Candida albicans; assay type: functional, organism-based
[2] = system: Bacillus subtilis; test: Antibacterial activity against Bacillus subtilis; assay type: functional, organism-based
[3] = system: Cladosporium cucumerinum; test: Antifungal activity against Cladosporium cucumerinum; assay type: functional, organism-based
[4] = molecular target: Acetylcholinesterase (Homo sapiens) (UniProt P22303); test: Inhibition of acetylcholinesterase
Chain of Acetylcholinesterase (Homo sapiens) (P22303 whole entry): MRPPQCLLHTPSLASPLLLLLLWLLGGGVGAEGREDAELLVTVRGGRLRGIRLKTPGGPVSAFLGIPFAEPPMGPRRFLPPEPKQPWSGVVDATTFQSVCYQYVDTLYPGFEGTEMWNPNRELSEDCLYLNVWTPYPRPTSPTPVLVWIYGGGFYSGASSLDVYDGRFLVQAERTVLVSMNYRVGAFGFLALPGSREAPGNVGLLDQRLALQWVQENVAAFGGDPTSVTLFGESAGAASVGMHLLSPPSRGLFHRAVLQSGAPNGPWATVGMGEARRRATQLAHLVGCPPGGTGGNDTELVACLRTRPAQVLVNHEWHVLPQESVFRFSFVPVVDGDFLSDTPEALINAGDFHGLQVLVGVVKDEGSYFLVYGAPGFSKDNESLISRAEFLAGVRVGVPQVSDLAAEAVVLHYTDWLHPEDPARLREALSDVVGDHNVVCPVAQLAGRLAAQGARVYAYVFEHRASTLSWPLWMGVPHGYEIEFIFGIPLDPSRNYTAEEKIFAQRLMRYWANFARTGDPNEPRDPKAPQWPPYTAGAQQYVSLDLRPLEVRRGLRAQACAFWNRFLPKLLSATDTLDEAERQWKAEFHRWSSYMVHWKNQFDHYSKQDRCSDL

[5] = Antioxidant activity assessed as DPPH scavenging activity; assay type: functional

Measured: Activity

COc1cc(/C=C2\C(=O)N(CCc3ccc(O)cc3)[C@H](c3ccc(O)c(OC)c3)[C@H]2C(=O)NCCc2ccc(O)cc2)ccc1O
inactive: all assays above

COc1cc(/C=C2\C(=O)N(CCc3ccc(OC(C)=O)cc3)[C@H](c3ccc(OC(C)=O)c(OC)c3)[C@H]2C(=O)NCCc2ccc(OC(C)=O)cc2)ccc1OC(C)=O
inactive: all assays above
